# Results as given in patent US11780845B2 (Relay Therapeutics, Inc., priority 2019, dated 2023).
# System: SNU-16
# Assay: Cell SNU-16 assay
# Format: cell-based
# Details: Homo sapiens, SNU-16, SNU-16 cells
row,IC50 [nM],SMILES
1,1000 to 100000,"C=CC(=O)N[C@H]1C[C@@H]1c1c(-c2ccc(C(=O)N3CCCC3)cc2)c2c(N)ncnc2n1C (single isomer, unassigned) [Example 972]"
2,≤ 100,C=CC(=O)Nc1ccc(-c2c(-c3ccc(=O)[nH]c3)c3c(N)ncnc3n2C)cc1 [Example 1158]
3,≤ 100,"CN(C)C/C=C/C(=O)Nc1ccc(-c2c(C3=CC[C@H](C(=O)N4CCCC4)CC3)c3c(N)ncnc3n2C)cc1 (single isomer, unassigned) [Example 1042]"
4,1000 to 100000,C=CC(=O)N1CC(c2c(C3=CC[C@@H](C(=O)N4CCCC4)CC3)c3c(N)ncnc3n2C)C[C@@H]1C (stereo partly drawn) [Example 890]
5,≤ 100,C=C(C)C(=O)Nc1cc(C)c(-c2c(-c3ccc(Oc4nccc(C)n4)cc3)c3c(N)ncnc3n2C)c(F)c1 [Example 1097]
6,1000 to 100000,C=C(C)C(=O)Nc1ccc(-c2c(-c3ccc(C(=O)NCC(C)C)c(OC)c3)c3c(N)ncnc3n2C)cc1 [Example 910]
7,250 to 1000,C=C(C)C(=O)Nc1cc(-c2c(-c3ccc(Oc4nccc(C)n4)cc3)c3c(N)ncnc3n2C)n(C)n1 [Example 1065]
8,≤ 100,"C=C(C)C(=O)Nc1ccc(-c2c(C3=CC[C@@H](C(=O)N4CCCC45COC5)CC3)c3c(N)ncnc3n2C)c(C)c1 (single isomer, unassigned) [Example 1033]"
9,1000 to 100000,C=CC(=O)N1CCC(n2cc(-c3c(-c4ccc(Oc5ccn(C)n5)cc4)c4c(N)ncnc4n3C)cn2)CC1 [Example 855]
10,≤ 100,C=CC(=O)N1CCC(n2cc(-c3c(-c4ccc(C(=O)NCC(C)(C)O)cc4)c4c(N)ncnc4n3C)cn2)CC1 [Example 854]
11,100 to 250,C#Cc1cnc2cc(-c3c(-c4ccc(Oc5nccc(C)n5)c(F)c4)c4c(C)ncnc4n3C)ccc2n1 [Example 1408]
12,250 to 1000,C=C1C(=O)N(c2ccc(-c3c(-c4ccc(Oc5nccc(C)n5)cc4)c4c(N)ncnc4n3C)cc2)CC1(C)C [Example 1088]
13,≤ 100,C#Cc1cc(C)c(-c2c(-c3ccc(Oc4nccc(C)n4)c(C#N)c3)c3c(N)ncnc3n2C)cn1 [Example 1262]
14,1000 to 100000,C=C(C)C(=O)Nc1ccc(-c2cn3ncnc(N)c3c2-c2ccc(C(=O)N3CCCCC3)cc2)cc1 [Example 821]
15,1000 to 100000,C=CC(=O)Nc1ccc(-c2c(-c3ccc(Oc4nccc(C)n4)c(C)c3)c3c(N)ncnc3n2C)c(C)c1 [Example 1083]
16,1000 to 100000,"C=CC(=O)N[C@@H]1C[C@H]1c1c(-c2ccc(C(=O)N3CCCC3)cc2)c2c(N)ncnc2n1C (single isomer, unassigned) [Example 974]"
17,≤ 100,C=C(C)C(=O)Nc1ccc(-c2c(C3=CC[C@@H](S(=O)(=O)N4CCCC4)CC3)c3c(N)ncnc3n2C)cc1 [Example 993]
18,≤ 100,C#Cc1cc(C)c(-c2c(-c3ncc(Oc4nccc(C)n4)cc3F)c3c(N)ncnc3n2C)cn1 [Example 1492]
19,≤ 100,C#Cc1ncc2ccc(-c3c(-c4ccc(Oc5nccc(C)n5)c(F)c4)c4c(N)ncnc4n3C)cc2n1 [Example 1379]
20,1000 to 100000,"C#Cc1ccc(-c2c(C3=CC[C@H](C(=O)N4CCCC4)CC3)c3cncnc3n2C)c(C)n1 (single isomer, unassigned) [Example 1207]"
21,≤ 100,"C=CC(=O)Nc1ccc(-c2c(C3=CC[C@H](C(=O)N4CCCC4)CC3)c3c(N)ncnc3n2C)cc1 (single isomer, unassigned) [Example 963]"
22,≤ 100,"C=C(C)C(=O)Nc1ccc(-c2c(C3=CC[C@@H](C(=O)N4CCCC45COC5)CC3)c3c(N)ncnc3n2C)cc1 (single isomer, unassigned) [Example 914]"
23,250 to 1000,"C=CC(=O)N1CC=C(c2c(C3=CC[C@H](C(=O)N4CCCC4)CC3)c3c(N)ncnc3n2C)C1 (single isomer, unassigned) [Example 871]"
24,1000 to 100000,C#Cc1ncc(-c2ccc(-c3c(-c4ccc(Oc5nccc(C)n5)cc4)c4c(N)ncnc4n3C)cc2)o1 [Example 1052]
25,≤ 100,C#Cc1cc(C)c(-c2c(-c3ccc(C(=O)N4CCC[C@@H]4C#C)cc3)c3c(N)ncnc3n2C)cn1 [Example 1187]
26,1000 to 100000,C=C(C)C(=O)Nc1ccc(-c2c(-c3cnc4ccccc4c3)c3c(N)ncnc3n2C)cc1 [Example 1284]
27,250 to 1000,"C=C(C)C(=O)Nc1ccc(-c2c(C3=CC[C@H](C(=O)N4CCC[C@H]4COC)CC3)c3c(N)ncnc3n2C)cc1 (single isomer, unassigned) [Example 982]"

# Molecular target: FGFR2 (Homo sapiens (Human), UniProt P21802)
# Assay: Biochemical FGFR2 Caliper assay
# Details: not given
# Chain of FGFR2 (P21802 22-821): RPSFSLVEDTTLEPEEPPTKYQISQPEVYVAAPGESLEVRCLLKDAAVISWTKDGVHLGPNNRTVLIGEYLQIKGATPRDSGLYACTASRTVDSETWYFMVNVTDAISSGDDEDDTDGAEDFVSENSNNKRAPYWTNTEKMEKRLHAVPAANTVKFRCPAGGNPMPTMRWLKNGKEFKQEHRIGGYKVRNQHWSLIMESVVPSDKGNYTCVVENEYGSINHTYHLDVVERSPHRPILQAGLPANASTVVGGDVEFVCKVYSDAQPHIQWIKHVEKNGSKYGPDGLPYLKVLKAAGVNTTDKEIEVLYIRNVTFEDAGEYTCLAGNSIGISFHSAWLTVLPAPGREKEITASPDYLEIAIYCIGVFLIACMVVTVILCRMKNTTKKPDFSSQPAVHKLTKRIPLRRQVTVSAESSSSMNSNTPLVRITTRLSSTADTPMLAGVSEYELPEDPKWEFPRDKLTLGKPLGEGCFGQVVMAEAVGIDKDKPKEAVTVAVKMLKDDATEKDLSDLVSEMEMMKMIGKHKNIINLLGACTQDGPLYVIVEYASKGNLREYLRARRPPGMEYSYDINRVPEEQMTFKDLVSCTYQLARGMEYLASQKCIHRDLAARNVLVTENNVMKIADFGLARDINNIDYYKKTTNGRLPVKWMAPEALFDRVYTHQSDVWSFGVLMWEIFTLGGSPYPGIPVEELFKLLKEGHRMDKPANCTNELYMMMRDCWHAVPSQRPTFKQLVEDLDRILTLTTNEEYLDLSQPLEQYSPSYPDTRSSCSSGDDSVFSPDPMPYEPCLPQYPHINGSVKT
row,IC50 [nM],SMILES
1,1000 to 100000,"C=CC(=O)N[C@H]1C[C@@H]1c1c(-c2ccc(C(=O)N3CCCC3)cc2)c2c(N)ncnc2n1C (single isomer, unassigned) [Example 972]"
2,< 100,C=CC(=O)Nc1ccc(-c2c(-c3ccc(=O)[nH]c3)c3c(N)ncnc3n2C)cc1 [Example 1158]
3,< 100,"CN(C)C/C=C/C(=O)Nc1ccc(-c2c(C3=CC[C@H](C(=O)N4CCCC4)CC3)c3c(N)ncnc3n2C)cc1 (single isomer, unassigned) [Example 1042]"
4,1000 to 100000,C=CC(=O)N1CC(c2c(C3=CC[C@@H](C(=O)N4CCCC4)CC3)c3c(N)ncnc3n2C)C[C@@H]1C (stereo partly drawn) [Example 890]
5,< 100,C=C(C)C(=O)Nc1cc(C)c(-c2c(-c3ccc(Oc4nccc(C)n4)cc3)c3c(N)ncnc3n2C)c(F)c1 [Example 1097]
6,1000 to 100000,C=C(C)C(=O)Nc1ccc(-c2c(-c3ccc(C(=O)NCC(C)C)c(OC)c3)c3c(N)ncnc3n2C)cc1 [Example 910]
7,250 to 1000,C=C(C)C(=O)Nc1cc(-c2c(-c3ccc(Oc4nccc(C)n4)cc3)c3c(N)ncnc3n2C)n(C)n1 [Example 1065]
8,< 100,"C=C(C)C(=O)Nc1ccc(-c2c(C3=CC[C@@H](C(=O)N4CCCC45COC5)CC3)c3c(N)ncnc3n2C)c(C)c1 (single isomer, unassigned) [Example 1033]"
9,250 to 1000,C=CC(=O)N1CCC(n2cc(-c3c(-c4ccc(Oc5ccn(C)n5)cc4)c4c(N)ncnc4n3C)cn2)CC1 [Example 855]
10,100 to 250,C=CC(=O)N1CCC(n2cc(-c3c(-c4ccc(C(=O)NCC(C)(C)O)cc4)c4c(N)ncnc4n3C)cn2)CC1 [Example 854]
11,< 100,C#Cc1cnc2cc(-c3c(-c4ccc(Oc5nccc(C)n5)c(F)c4)c4c(C)ncnc4n3C)ccc2n1 [Example 1408]
12,1000 to 100000,C=C1C(=O)N(c2ccc(-c3c(-c4ccc(Oc5nccc(C)n5)cc4)c4c(N)ncnc4n3C)cc2)CC1(C)C [Example 1088]
13,< 100,C#Cc1cc(C)c(-c2c(-c3ccc(Oc4nccc(C)n4)c(C#N)c3)c3c(N)ncnc3n2C)cn1 [Example 1262]
14,1000 to 100000,C=C(C)C(=O)Nc1ccc(-c2cn3ncnc(N)c3c2-c2ccc(C(=O)N3CCCCC3)cc2)cc1 [Example 821]
15,250 to 1000,C=CC(=O)Nc1ccc(-c2c(-c3ccc(Oc4nccc(C)n4)c(C)c3)c3c(N)ncnc3n2C)c(C)c1 [Example 1083]
16,1000 to 100000,"C=CC(=O)N[C@@H]1C[C@H]1c1c(-c2ccc(C(=O)N3CCCC3)cc2)c2c(N)ncnc2n1C (single isomer, unassigned) [Example 974]"
17,< 100,C=C(C)C(=O)Nc1ccc(-c2c(C3=CC[C@@H](S(=O)(=O)N4CCCC4)CC3)c3c(N)ncnc3n2C)cc1 [Example 993]
18,< 100,C#Cc1cc(C)c(-c2c(-c3ncc(Oc4nccc(C)n4)cc3F)c3c(N)ncnc3n2C)cn1 [Example 1492]
19,100 to 250,C#Cc1ncc2ccc(-c3c(-c4ccc(Oc5nccc(C)n5)c(F)c4)c4c(N)ncnc4n3C)cc2n1 [Example 1379]
20,1000 to 100000,"C#Cc1ccc(-c2c(C3=CC[C@H](C(=O)N4CCCC4)CC3)c3cncnc3n2C)c(C)n1 (single isomer, unassigned) [Example 1207]"
21,< 100,"C=CC(=O)Nc1ccc(-c2c(C3=CC[C@H](C(=O)N4CCCC4)CC3)c3c(N)ncnc3n2C)cc1 (single isomer, unassigned) [Example 963]"
22,< 100,"C=C(C)C(=O)Nc1ccc(-c2c(C3=CC[C@@H](C(=O)N4CCCC45COC5)CC3)c3c(N)ncnc3n2C)cc1 (single isomer, unassigned) [Example 914]"
23,250 to 1000,"C=CC(=O)N1CC=C(c2c(C3=CC[C@H](C(=O)N4CCCC4)CC3)c3c(N)ncnc3n2C)C1 (single isomer, unassigned) [Example 871]"
24,1000 to 100000,C#Cc1ncc(-c2ccc(-c3c(-c4ccc(Oc5nccc(C)n5)cc4)c4c(N)ncnc4n3C)cc2)o1 [Example 1052]
25,< 100,C#Cc1cc(C)c(-c2c(-c3ccc(C(=O)N4CCC[C@@H]4C#C)cc3)c3c(N)ncnc3n2C)cn1 [Example 1187]
26,1000 to 100000,C=C(C)C(=O)Nc1ccc(-c2c(-c3cnc4ccccc4c3)c3c(N)ncnc3n2C)cc1 [Example 1284]
27,1000 to 100000,"C=C(C)C(=O)Nc1ccc(-c2c(C3=CC[C@H](C(=O)N4CCC[C@H]4COC)CC3)c3c(N)ncnc3n2C)cc1 (single isomer, unassigned) [Example 982]"
